Test results published in patent publication US7964624B1, “Inhibitors of serine proteases” (priority 2005, dated 2011).

Key:
HCV NS3 protease domain = target: T1, HCV NS3 protease domain (Hepatitis C virus genotype 1b, UniProt Q9WMX2); assay: biochemical; conditions: Enzyme Assay 1 (HCV NS3 Protease Domain Peptide Cleavage Assay) activity, apparent Ki class
T1 construct: The first 181 amino acids of NS3 (residues 1027-1207 of the viral polyprotein); hexa-histidine (C); made in house; host or cells: E. coli BL21/DE3 pLysS

[1] = target: T2, full-length hepatitis C viral protein NS3•4A (Hepatitis C virus genotype 1a, UniProt P27958); assay: biochemical; parameters: species or system HCV sub-type strain 1a; conditions: Enzyme Assay 2 (HCV NS3 Peptide Cleavage Assay) activity, apparent Ki class
T2 construct: hexa-histidine (N); made in house; host or cells: Sf9 insect cells (baculovirus, pVL1392)

SMILES | Ki (HCV NS3 protease domain) [nM] | Ki [1] [nM]
CCC[C@H](NC(=O)[C@@H]1C[C@]2(CC(c3cccc(Cl)c3)=NO2)CN1C(=O)[C@@H](NC(=O)CC1CCCCC1)C(C)(C)C)C(=O)C(=O)NCc1ccc(-n2cccn2)cc1 [Compound 73] | > 500 | 100 to 500
CCC[C@H](NC(=O)[C@@H]1C[C@]2(CC(c3ccc(C#N)cc3)=NO2)CN1C(=O)[C@@H](NC(=O)CC1CCOCC1)C(C)(C)C)C(=O)C(=O)NC1CC1 [Compound 177] | > 500 | 100 to 500
CCC[C@H](NC(=O)[C@@H]1C[C@]2(CC(c3cccc(Cl)c3)=NO2)CN1C(=O)[C@@H](NC(=O)CC1CCCCC1)C(C)(C)C)C(=O)C(=O)NCc1cc(-c2ccc(Cl)cc2)no1 [Compound 433] | > 500 | > 500
CCC[C@H](NC(=O)[C@@H]1C[C@]2(CC(c3cccc(Cl)c3)=NO2)CN1C(=O)[C@@H](NC(=O)CC1CCCCC1)C(C)(C)C)C(=O)C(=O)NCCc1ccc2c(c1)OCO2 [Compound 221] | 100 to 500 | 100 to 500
CC(C)(C)OC(=O)N[C@H]1CCCCC/C=C\[C@@H]2C[C@@]2(C(=O)NS(=O)(=O)C2CC2)NC(=O)[C@@H]2C[C@]3(CC(C(=O)c4ccccc4)=NO3)CN2C1=O [Compound 163] | < 100 | < 100
CCC[C@H](NC(=O)[C@@H]1C[C@]2(CC(c3ccsc3)=NO2)CN1C(=O)[C@@H](NC(=O)CC1CCCCC1)C(C)(C)C)C(=O)C(=O)NC1CC1 [Compound 168] | 100 to 500 | 100 to 500
C#CCCC(NC(=O)[C@@H]1C[C@]2(CC(c3cc(Cl)c(OC)cc3OC)=NO2)CN1C(=O)[C@@H](NC(=O)CC1CCOCC1)C(C)(C)C)C(=O)C(=O)NC1CC1 (some centres unmarked) [Compound 510] | 100 to 500 | < 100
CCC[C@H](NC(=O)[C@@H]1C[C@]2(CC(c3cccc(Cl)c3)=NO2)CN1C(=O)[C@@H](NC(=O)CC1CCCCC1)C(C)(C)C)C(=O)C(=O)NCC1(c2ccc(OC)cc2)CCOCC1 [Compound 91] | > 500 | > 500
CCC[C@H](NC(=O)[C@@H]1C[C@]2(CC(c3cccc(Cl)c3)=NO2)CN1C(=O)[C@@H](NC(=O)CC1CCCCC1)C(C)(C)C)C(=O)C(=O)N1CCOCC1 [Compound 410] | > 500 | > 500
C=CCOC(=O)N[C@H](C(=O)N1C[C@@]2(CC(c3cccc(Cl)c3)=NO2)C[C@H]1C(=O)N[C@]1(C(=O)NS(=O)(=O)C2CC2)C[C@H]1C=C)C(C)(C)C [Compound 130] | 100 to 500 | < 100
CC(C)(C)[C@H](NC(=O)CC1CC2CCC1C2)C(=O)N1C[C@@]2(CC(c3cccc(Cl)c3)=NO2)C[C@H]1C(=O)N[C@@H](CC1CC1)C(=O)C(N)=O (some centres unmarked) [Compound 13] | < 100 | < 100
CC(C)(C)[C@H](NC(=O)CC1CCOCC1)C(=O)N1C[C@@]2(CC(c3cccc(Cl)c3)=NO2)C[C@H]1C(=O)NC(CC1CCC1)C(=O)C(=O)NC1CC1 (some centres unmarked) [Compound 87] | 100 to 500 | 100 to 500
CCC[C@H](NC(=O)[C@@H]1C[C@]2(CC(c3cccc(Cl)c3)=NO2)CN1C(=O)C(NS(=O)(=O)c1ccccc1)c1ccccc1)C(=O)C(=O)NC1CC1 (some centres unmarked) [Compound 501] | > 500 | > 500
CCOc1c(F)cc(C2=NO[C@]3(C2)C[C@@H](C(=O)N[C@@H](CC2CC2)C(=O)C(N)=O)N(C(=O)[C@@H](NC(=O)CC2CCOCC2)C(C)(C)C)C3)cc1Cl [Compound 67] | < 100 | < 100
CC(C)(C)[C@H](NC(=O)CC1CCCCC1)C(=O)N1C[C@@]2(CC(c3cccc(Cl)c3)=NO2)C[C@H]1C(=O)NC(CC1CCC1)C(=O)C(=O)NCC(F)(F)F (some centres unmarked) [Compound 268] | 100 to 500 | > 500
CCC[C@H](NC(=O)[C@@H]1C[C@]2(CC(c3cccc(Cl)c3)=NO2)CN1C(=O)[C@@H](NC(=O)CC1CCCCC1)C(C)(C)C)C(=O)C(=O)N1CCC[C@@H]1COC [Compound 347] | > 500 | > 500

SMILES | Ki (HCV NS3 protease domain) [nM] | Ki [1] [nM]
CCC[C@H](NC(=O)[C@@H]1C[C@]2(CC(c3cccc(Cl)c3)=NO2)CN1C(=O)[C@@H](NC(=O)CC1CCCCC1)C(C)(C)C)C(=O)C(=O)NCC1COc2ccccc2O1 (some centres unmarked) [Compound 141] | > 500 | 100 to 500
CCC[C@H](NC(=O)[C@@H]1C[C@]2(CC(c3cnc(OC)c(Cl)c3)=NO2)CN1C(=O)[C@@H](NC(=O)CC1CCCCC1)C(C)(C)C)C(=O)C(=O)NC1CC1 [Compound 312] | < 100 | < 100
CCC[C@H](NC(=O)[C@@H]1C[C@]2(CC(c3cccc(Cl)c3)=NO2)CN1C(=O)[C@@H](NC(=O)[C@@H]1CCCN1C(=O)c1ccccc1)C(C)(C)C)C(=O)C(=O)NC1CC1 [Compound 26] | 100 to 500 | < 100
CCC[C@H](NC(=O)[C@@H]1C[C@]2(CC(c3cccc(Cl)c3)=NO2)CN1C(=O)[C@@H](NC(=O)CC1CCCCC1)C(C)(C)C)C(=O)C(=O)N[C@H](C)CC [Compound 452] | > 500 | 100 to 500
CCC[C@H](NC(=O)[C@@H]1C[C@]2(CC(c3cc(C)c(OC)c(C)c3)=NO2)CN1C(=O)[C@@H](NC(=O)CC1CCCCC1)C(C)(C)C)C(=O)C(=O)NC1CC1 [Compound 362] | 100 to 500 | < 100
CCC[C@H](NC(=O)[C@@H]1C[C@]2(CC(c3cccc(Cl)c3)=NO2)CN1C(=O)C(NS(=O)(=O)c1ccc(F)cc1)c1ccccc1)C(=O)C(=O)NC1CC1 (some centres unmarked) [Compound 466] | > 500 | > 500
CCC[C@H](NC(=O)[C@@H]1C[C@]2(CC(c3cccc(Cl)c3)=NO2)CN1C(=O)[C@@H](Nc1ccccc1)C(C)(C)C)C(=O)C(=O)NC1CC1 [Compound 172] | > 500 | 100 to 500
CN(C)C(=O)C(=O)[C@H](CC1CCC1)NC(=O)[C@@H]1C[C@]2(CC(c3cccc(Cl)c3)=NO2)CN1C(=O)[C@@H](NC(=O)CC1CCCCC1)C(C)(C)C [Compound 63] | > 500 | > 500
CCC[C@H](NC(=O)[C@@H]1C[C@]2(CC(c3cc(Cl)c4c(c3)OCO4)=NO2)CN1C(=O)[C@@H](NC(=O)CC1CCCCC1)C(C)(C)C)C(=O)C(=O)NC1CC1 [Compound 370] | 100 to 500 | < 100
CCC[C@H](NC(=O)[C@@H]1C[C@]2(CC(c3cccc(Cl)c3)=NO2)CN1C(=O)[C@@H](CC(=O)NC1CCCCC1)C(C)C)C(=O)C(=O)NC1CC1 [Compound 21] | > 500 | > 500
COc1cc(OC)c(C2=NO[C@]3(C2)C[C@@H](C(=O)NC(CC2CCC2)C(=O)C(=O)NC2CC2)N(C(=O)[C@@H](NC(=O)CC2CCOCC2)C(C)(C)C)C3)cc1Cl (some centres unmarked) [Compound 282] | > 500 | 100 to 500
CCC[C@H](NC(=O)[C@@H]1C[C@]2(CC(c3cccc(Cl)c3)=NO2)CN1C(=O)CCNS(=O)(=O)c1ccc(NC(C)=O)cc1)C(=O)C(=O)NC1CC1 [Compound 309] | > 500 | > 500
CCC[C@H](NC(=O)[C@@H]1C[C@]2(CC(c3cccc(Cl)c3)=NO2)CN1C(=O)[C@H](NC(=O)CC1CCCCC1)C(C)(C)C)C(=O)C(=O)N(CC)CC [Compound 113] | > 500 | > 500
CCC[C@H](NC(=O)[C@@H]1C[C@]2(CC(c3cc(Cl)c(OC)cc3OC)=NO2)CN1C(=O)[C@@H](NC(=O)CC1CCOCC1)C(C)(C)C)C(=O)C(=O)NC1CC1 [Compound 326] | 100 to 500 | 100 to 500
CCC[C@H](NC(=O)[C@@H]1C[C@]2(CC(c3cccc(Cl)c3)=NO2)CN1C(=O)[C@@H](NC(=O)CC1CCCCC1)C(C)(C)C)C(=O)C(=O)N1CCC1 [Compound 79] | 100 to 500 | < 100
